Data from US5206223A, “Method for inhibiting heparanase activity” (Yeda Research and Development Co. Ltd., priority 1986, dated 1993).

Experiments:
[1] = tested on: DTH reaction; assay: In situ DTH: I-LNC injected directly into the ears; assay type: in vivo, mice; settings: heparin 5 u.g, I-LNC intradermally into ears, 24 h
Description: If inhibition of heparanase and heparanase-dependent traffic is the major mechanism by which low dose heparin suppresses DTH, then one might be able to bypass the inhibition of DTH by bypassing the need for vascular traffic of sensitized T lymphocytes. Accordingly we treated recipient mice with an inhibitory dose (5 μg) of heparin, and then injected the donor I-LNC directly into the ears, rather than intravenously. Table 7 illustrates that putting the sensitized lymphocytes in situ bypassed the inhibitory effect on the DTH of 5 μg of heparin. Thus low dose heparin treatment appeared to inhibit DTH only when the DTH-mediat lymphocytes had to make their way to the site of the antigen by way of the circulation.
I-LNC were obtained from BALB/c mice sensitized to OX 5 days earlier. The I-LNC were centrifuged, resuspended in RPMI medium and injected intradermally (3×10^6 cells/20 μ/l) into the dorsal surface of the ears of naive recipient mice. The ears were challenged with OX immediately after cell transfer. The magnitude of DTH ear swelling was determined 24 h later.

[2] = tested on: DTH skin response; settings: human, in vivo
[3] = tested on: heparanase; assay: Inhibition of T lymphocyte heparanase activity (degradation of 35S-labeled heparan sulfate of extracellular matrix); assay type: biochemical; settings: medium of activated T lymphocytes, 35S-labeled extracellular matrix, various concentrations
Description: Heparanase activity was induced into the extracellular medium bathing activated T lymphocytes and tested by incubating the medium with extracellular matrix whose heparan sulfate was labeled with ^35 S as described (Naparstek, Y., Cohen, I. R., Fuks, Z. and I. Vlodavsky. Activated T lymphocytes produce a matrix-degrading heparan sulphate endoglycosidase. Nature 310:241 (1984)). Inhibition of heparanase activity was tested by adding various concentrations of heparin or modified heparins to the reaction mixture and measuring the effect on degradation of the labeled heparin-sulfate as described (Naparstek, Y., Cohen, I. R., Fuks, Z. and I. Vlodavsky.
Activated T lymphocytes produce a matrix-degrading heparan sulphate endoglycosidase, Nature 310:241 (1984)). Totally desulfated heparin and N-desulfated, N-acetylated heparin was prepared as described. (Ayotte, L., A. S. Perlin. NMR spectroscopic observations related to the function of sulfate groups in heparin. Calcium binding vs. biological activity. Carbohydrate Res. 145:267 (1986)).

[4] = tested on: lymphocytes; settings: 17-35 mg/kg/rat; cited from earlier work
[5] = tested on: adjuvant arthritis; settings: 1000 U/rat; cited from earlier work
[6] = tested on: adjuvant arthritis; assay: Adjuvant arthritis induced with M. tuberculosis; assay type: in vivo, Lewis rats; settings: for Adjuvant arthritis maximum clinical score: scale 0-16
[7] = tested on: skin allografts; assay: Skin allograft survival (SJL/J skin on (BALB/c×C57BL/6)F1 mice); assay type: in vivo; settings: 0.05 mg/kg daily
Description: FIG. 1. Treatment with heparin (0.05 mg/kg) prevents rejection of skin allografts. Mice of hybrid strain (BALB/c×C57BL/6)F1 were grafted with skin from allogeneic SJL/J mice. The mice (20 per group) were treated daily with subcutaneous injections of saline (squares) or with heparin ("Leo", 0.05 mg/kg; diamonds) and scored for skin graft survival. Median survival for the control group was 10 days while that for the heparin treated group was 24 days.
FIG. 2. Treatment with N-desulfated, N-acetylated heparin (10 mg/kg) prevents rejection of skin allografts. Mice were grafted as described for FIG. 1 and treated daily with saline (squares) or N-desulfated, N-acetylated heparin (10 mg/kg; diamonds). The median survival of the skin allograft in the control group was 10 days while that in the treated group was 20 days.
The median survival time of the skin grafts on control mice treated with saline was […] while that on mice treated with 0.05 mg/kg daily of heparin was 26 days with maximal survival to 32 days.

[8] = tested on: experimental autoimmune encephalomyelitis (EAE); assay: Experimental autoimmune encephalomyelitis (EAE) produced by anti-BP T lymphocytes; assay type: in vivo, Lewis rats; settings: for Day of onset of EAE / Duration of EAE / % incidence of EAE / Clinical score of EAE: 0.1 mg/kg daily; for % incidence of EAE: None 100; for Clinical score of EAE: scale 1-4, None 3.0
From the text: EAE is an experimental autoimmune disease with some features reminiscent of multiple sclerosis in humans. The disease is caused by T lymphocytes immunized to the basic protein (BP) of the central nervous system myelin. To test the effect of heparins on the ability of T lymphocytes to cause autoimmune disease, we used T lymphocytes sensitized against BP, either as T cell lines (Cohen, I. R. Experimental autoimmune encephalomyelitis: Pathogenesis and prevention. In: Immunoregulatory Processes in Multiple Sclerosis and Experimental Allergic Encephalomyelitis. A. A. Vandenbark and J. C. M. Raus, eds. Elsevier Biomedical Res. Amsterdam. 7:91-125 (1985)) or as populations of lymph node cells from BP immunized rats.
EAE was produced by inoculating Lewis rats with a T cell line of anti-BP T lymphocytes (10^6 cells) with anti-BP primed lymph node cells (10^7 cells) intravenously (Cohen, I. R. Experimental autoimmune encephalomyelitis: Pathogenesis and prevention. In: Immunoregulatory Processes in Multiple Sclerosis and Experimental Allergic Encephalomyelitis. A. A. Vandenbark and J. C. M. Raus, eds. Elsevier Biomedical Res. Amsterdam. 7:91-125 (1985)) One day before inoculation and daily for 10 days, the rats received either saline or the heparins.

[9] = rat, in vivo, 10 mg/kg
[10] = tested on: renal allograft; settings: subanticoagulant s.c. doses, 5000 U daily; cited from earlier work
[11] = 0.001 mg s.c. once daily for 5 days from day 9
[12] = 0.005 mg s.c. once daily for 5 days from day 9
[13] = 0.01 mg s.c. once daily for 5 days from day 9
[14] = 0.02 mg s.c. once daily for 5 days from day 9

heparin
Ear swelling ([1]; OX challenge no, no heparin 9 ± 1.0): 8 ± 1.0 ×10^-4 inch
Ear swelling ([1]; OX challenge yes, no heparin 22 ± 3.4): 20.4 ± 1.6 ×10^-4 inch
Effect on the DTH response (FIG. 9) [2]: did not have a significant inhibitory effect
Extent of induration [2]: decreased similarly
Mean diameter of erythema to mumps during treatment [2]: 13.6 mm
Mean diameter of erythema to tetanus toxoid during treatment [2]: 16.8 mm
Reversibility of the effect on the DTH response (FIG. 9) [2]: transient
Volunteers with significantly decreased DTH response to mumps ([2]; sc): 11/12
Volunteers with significantly decreased DTH response to tetanus ([2]; sc): 10/12
Inhibition of degradation of heparan sulfate by heparanase [3]: yes
Emigration of lymphocytes from the circulation [4]: inhibit the emigration of lymphocytes from the circulation
Severity of rat adjuvant arthritis [5]: enhanced the severity of the rat adjuvant arthritis
Adjuvant arthritis duration [6, 11]: 20 days
Adjuvant arthritis maximum clinical score [6, 11]: 6
Adjuvant arthritis duration [6, 12]: 16 days
Adjuvant arthritis maximum clinical score [6, 12]: 4
Adjuvant arthritis duration [6, 13]: 15 days
Adjuvant arthritis maximum clinical score [6, 13]: 5
Adjuvant arthritis duration [6, 14]: 8 days
Adjuvant arthritis maximum clinical score [6, 14]: 2
Adjuvant arthritis duration ([6]; 0.04 mg s.c. once daily for 5 days from day 9, dose 0: >20): > 20 days
Adjuvant arthritis maximum clinical score ([6]; 0.04 mg s.c. once daily for 5 days from day 9, dose 0: 10): 10
Inhibition of arthritis ([6]; rat, in vivo): yes
Arthritis score (day 60) ([6]; rat, in vivo, sc): 0
Maximal survival of skin allograft [7]: 32 days
EAE clinical score (FIG. 3) ([8]; 0.02 mg daily s.c. (0.1 mg/kg), from 1 day before T lymphocyte inoculation): inhibits EAE
Day of onset of EAE ([8]; B: T cell line, None 5.0): 6.5
Duration of EAE ([8]; B: T cell line, None 5.5): 3.6 days
% incidence of EAE ([8]; B: T cell line): 20%
Clinical score of EAE ([8]; B: T cell line): 1.0
Day of onset of EAE ([8]; D: primed lymph node cells, None 4.0): 6.3
Duration of EAE ([8]; D: primed lymph node cells, None 5.3): 4.0 days
% incidence of EAE ([8]; D: primed lymph node cells): 75%
Clinical score of EAE ([8]; D: primed lymph node cells): 1.5
Anti-coagulant effect (prothrombin time) [9]: increase in the prothrombin time
Early renal allograft function and graft survival [10]: no effect on early graft function or graft survival
